Assay results published in publication PMC2248166, “Quantitative peptide binding motifs for 19 human and mouse MHC class I molecules derived using positional scanning combinatorial peptide libraries” (Immunome Research, 2008).
Where a SMILES comes first, the peptide text is derived from it.

Target: HLA A*3001 (Homo sapiens, UniProt P04439, D140H/D185E/E176W/F33S/G80R/H175R/K168Q/R138E/R41S)
Test: biochemical
Type: binding

Sequence of HLA A*3001 (P04439 25-365 limits assumed, stated change not applied): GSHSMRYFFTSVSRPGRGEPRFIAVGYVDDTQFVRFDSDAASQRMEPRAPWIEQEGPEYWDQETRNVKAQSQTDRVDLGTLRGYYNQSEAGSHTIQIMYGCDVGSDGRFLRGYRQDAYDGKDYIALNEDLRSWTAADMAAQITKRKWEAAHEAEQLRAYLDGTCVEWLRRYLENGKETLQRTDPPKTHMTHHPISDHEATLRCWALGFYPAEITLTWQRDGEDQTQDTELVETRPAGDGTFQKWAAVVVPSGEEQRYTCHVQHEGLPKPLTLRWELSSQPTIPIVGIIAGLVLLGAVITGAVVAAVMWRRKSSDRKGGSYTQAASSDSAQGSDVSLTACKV

SMILES	IC50
CC[C@H](C)[C@H](NC(=O)[C@H](CC(N)=O)NC(=O)[C@H](CO)NC(=O)[C@H](CCSC)NC(=O)[C@H](CC(C)C)NC(=O)[C@H](CCCCN)NC(=O)[C@@H](NC(=O)[C@@H](N)CCCNC(=N)N)[C@@H](C)O)C(=O)N[C@@H](CCCCN)C(=O)O [3102.0253] (H-RTKLMSNIK-OH)	0.38 nM
CC(C)C[C@H](NC(=O)[C@H](Cc1ccccc1)NC(=O)[C@@H](NC(=O)[C@H](Cc1ccc(O)cc1)NC(=O)[C@H](CCCNC(=N)N)NC(=O)[C@@H](NC(=O)[C@@H](N)CC(N)=O)C(C)C)C(C)C)C(=O)N[C@@H](Cc1ccc(O)cc1)C(=O)N[C@@H](CCCCN)C(=O)O [3102.0198] (H-NVRYVFLYK-OH)	9.9 nM
CC[C@H](C)[C@H](NC(=O)[C@H](C)NC(=O)[C@@H](NC(=O)[C@@H](NC(=O)[C@H](C)NC(=O)[C@H](Cc1ccccc1)NC(=O)[C@@H](NC(=O)[C@@H](N)CCCCN)[C@@H](C)O)[C@@H](C)CC)[C@@H](C)CC)C(=O)N[C@H](C(=O)O)C(C)C [3102.0202] (H-KTFAIIAIV-OH)	24 nM
CC[C@H](C)[C@H](NC(=O)[C@H](Cc1ccc(O)cc1)NC(=O)[C@H](C)NC(=O)[C@H](C)NC(=O)[C@H](Cc1c[nH]cn1)NC(=O)[C@H](CO)NC(=O)[C@H](CCCCN)NC(=O)[C@H](CO)NC(=O)[C@@H](N)CCSC)C(=O)O [3102.0207] (H-MSKSHAAYI-OH)	0.23 nM
CC[C@H](C)[C@H](NC(=O)[C@H](CCCNC(=N)N)NC(=O)[C@@H]1CCCN1C(=O)[C@H](CO)NC(=O)[C@H](C)NC(=O)[C@H](CCCNC(=N)N)NC(=O)[C@H](CO)NC(=O)[C@@H](N)Cc1c[nH]cn1)C(=O)NCC(=O)O [3102.0216] (H-HSRASPRIG-OH)	0.93 nM
CC(C)C[C@H](NC(=O)[C@H](Cc1ccc(O)cc1)NC(=O)[C@H](CC(C)C)NC(=O)[C@H](Cc1ccccc1)NC(=O)[C@H](C)NC(=O)[C@H](Cc1ccccc1)NC(=O)[C@H](CCCNC(=N)N)NC(=O)[C@H](Cc1ccc(O)cc1)NC(=O)[C@@H](N)CCCNC(=N)N)C(=O)O [3102.0049] (H-RYRFAFLYL-OH)	0.17 nM
CC(C)C[C@H](NC(=O)[C@H](CO)NC(=O)[C@H](CCCCN)NC(=O)[C@H](CO)NC(=O)[C@H](C)N)C(=O)N[C@@H](CCCCN)C(=O)N1CCC[C@H]1C(=O)N[C@H](C(=O)N[C@@H](CCCCN)C(=O)O)[C@@H](C)O [3102.1346] (H-ASKSLKPTK-OH)	15 nM
CC[C@H](C)[C@H](N)C(=O)N[C@@H](CO)C(=O)N[C@@H](CCCNC(=N)N)C(=O)N[C@@H](CO)C(=O)N[C@@H](CCCNC(=N)N)C(=O)N[C@@H](CCCNC(=N)N)C(=O)N[C@@H](CC(C)C)C(=O)N[C@@H](Cc1ccccc1)C(=O)N[C@@H](C)C(=O)O [3102.0065] (H-ISRSRRLFA-OH)	2.2 nM
CC[C@H](C)[C@H](NC(=O)[C@H](CC(C)C)NC(=O)[C@H](CCCNC(=N)N)NC(=O)[C@H](CCC(N)=O)NC(=O)[C@H](CCCNC(=N)N)NC(=O)[C@H](Cc1ccc(O)cc1)NC(=O)[C@@H](N)CCCNC(=N)N)C(=O)N[C@@H](CO)C(=O)N[C@@H](CC(C)C)C(=O)O [3102.0110] (H-RYRQRLISL-OH)	5.2 nM
CC(C)[C@H](NC(=O)[C@@H](N)CCCNC(=N)N)C(=O)N[C@@H](Cc1c[nH]cn1)C(=O)N[C@@H](CC(=O)O)C(=O)N[C@H](C(=O)N[C@@H](CC(N)=O)C(=O)N[C@@H](C)C(=O)N[C@H](C(=O)N[C@@H](CCCCN)C(=O)O)[C@@H](C)O)[C@@H](C)O [3102.0197] (H-RVHDTNATK-OH)	7.7 nM
CC(C)C[C@H](NC(=O)[C@H](CCCNC(=N)N)NC(=O)[C@H](Cc1ccc(O)cc1)NC(=O)[C@H](CCC(=O)O)NC(=O)[C@H](CCC(N)=O)NC(=O)[C@H](Cc1ccccc1)NC(=O)[C@@H](NC(=O)[C@@H](N)Cc1c[nH]cn1)C(C)C)C(=O)N[C@@H](CCCCN)C(=O)O [3102.0284] (H-HVFQEYRLK-OH)	27 nM
CC[C@H](C)[C@H](NC(=O)[C@@H]1CCCN1C(=O)[C@H](CCCCN)NC(=O)[C@@H](NC(=O)[C@@H](N)CCCNC(=N)N)[C@@H](C)O)C(=O)N[C@@H](CO)C(=O)N[C@@H](CCSC)C(=O)N[C@@H](Cc1ccc(O)cc1)C(=O)N[C@@H](Cc1ccccc1)C(=O)O [3102.0165] (H-RTKPISMYF-OH)	0.6 nM
CC(C)C[C@H](NC(=O)[C@H](C)NC(=O)[C@H](Cc1ccc(O)cc1)NC(=O)[C@H](CCCNC(=N)N)NC(=O)[C@@H](NC(=O)[C@@H](N)CC(C)C)[C@@H](C)O)C(=O)N[C@@H](Cc1c[nH]cn1)C(=O)NCC(=O)N[C@@H](CCCCN)C(=O)O [3102.0179] (H-LTRYALHGK-OH)	0.25 nM
CC[C@H](C)[C@H](NC(=O)[C@H](C)NC(=O)[C@@H](N)CCCCN)C(=O)N[C@@H](CO)C(=O)N[C@@H](CC(N)=O)C(=O)N[C@@H](C)C(=O)N[C@@H](CCCNC(=N)N)C(=O)N[C@@H](CC(C)C)C(=O)N[C@@H](CCCCN)C(=O)O [3102.0204] (H-KAISNARLK-OH)	26 nM
CC(C)C[C@H](NC(=O)[C@H](Cc1ccc(O)cc1)NC(=O)[C@H](CCCNC(=N)N)NC(=O)[C@@H](NC(=O)[C@@H](N)CCCNC(=N)N)C(C)C)C(=O)N[C@H](C(=O)N[C@@H](CCCNC(=N)N)C(=O)N[C@@H](CC(N)=O)C(=O)N[C@@H](Cc1ccc(O)cc1)C(=O)O)[C@@H](C)O [3102.0155] (H-RVRYLTRNY-OH)	5.6 nM
CC[C@H](C)[C@H](NC(=O)[C@H](Cc1ccc(O)cc1)NC(=O)[C@H](CO)NC(=O)[C@H](CC(C)C)NC(=O)[C@H](Cc1ccccc1)NC(=O)[C@H](Cc1c[nH]cn1)NC(=O)[C@H](CCCNC(=N)N)NC(=O)[C@@H](NC(=O)[C@@H](N)CCCNC(=N)N)[C@@H](C)O)C(=O)O [3102.0111] (H-RTRHFLSYI-OH)	0.24 nM
CC[C@H](C)[C@H](NC(=O)[C@@H](NC(=O)[C@@H](NC(=O)[C@H](CCCCN)NC(=O)[C@H](C)NC(=O)[C@@H](N)CCCCN)[C@@H](C)O)[C@@H](C)O)C(=O)N[C@@H](CO)C(=O)N[C@@H](CC(N)=O)C(=O)N[C@@H](Cc1ccc(O)cc1)C(=O)O [3102.0241] (H-KAKTTISNY-OH)	24 nM
CC(C)[C@H](NC(=O)[C@H](CO)NC(=O)[C@@H]1CCCN1C(=O)[C@H](CO)NC(=O)[C@H](C)NC(=O)[C@H](Cc1ccc(O)cc1)NC(=O)[C@H](Cc1ccccc1)NC(=O)CNC(=O)[C@@H](N)CCCCN)C(=O)O [3102.0070] (H-KGFYASPSV-OH)	2.7 nM
CC[C@H](C)[C@H](NC(=O)[C@H](CO)NC(=O)[C@@H](NC(=O)[C@H](CCC(N)=O)NC(=O)[C@H](CCCCN)NC(=O)[C@@H](NC(=O)[C@@H](N)CCCNC(=N)N)C(C)C)[C@@H](C)CC)C(=O)N[C@@H](CO)C(=O)N[C@H](C(=O)O)[C@@H](C)O [3102.0166] (H-RVKQISIST-OH)	0.37 nM
CC[C@H](C)[C@H](NC(=O)[C@@H](NC(=O)[C@H](CC(N)=O)NC(=O)[C@H](CCCCN)NC(=O)[C@H](CO)NC(=O)[C@@H](N)CCCNC(=N)N)[C@@H](C)O)C(=O)N[C@H](C(=O)N[C@H](C(=O)N[C@@H](C)C(=O)O)[C@@H](C)CC)[C@@H](C)CC [3102.0089] (H-RSKNTIIIA-OH)	0.16 nM
CC[C@H](C)[C@H](NC(=O)[C@H](CC(C)C)NC(=O)[C@H](C)NC(=O)[C@@H](NC(=O)[C@H](Cc1c[nH]cn1)NC(=O)[C@@H](NC(=O)[C@@H](N)CCCNC(=N)N)[C@@H](C)O)[C@@H](C)O)C(=O)N[C@@H](Cc1ccccc1)C(=O)N[C@@H](CC(C)C)C(=O)O [3102.0094] (H-RTHTALIFL-OH)	0.7 nM
CC[C@H](C)[C@H](NC(=O)[C@H](CCCNC(=N)N)NC(=O)[C@@H](NC(=O)[C@H](CC(=O)O)NC(=O)[C@H](CCCCN)NC(=O)[C@@H](NC(=O)[C@@H](N)CCCNC(=N)N)[C@@H](C)O)[C@@H](C)O)C(=O)N[C@@H](CCCCN)C(=O)N[C@@H](C)C(=O)O [3102.0205] (H-RTKDTRIKA-OH)	0.2 nM
CC(C)C[C@H](NC(=O)[C@H](Cc1ccccc1)NC(=O)[C@@H](NC(=O)CNC(=O)[C@H](Cc1ccc(O)cc1)NC(=O)[C@H](CCCNC(=N)N)NC(=O)[C@H](Cc1ccc(O)cc1)NC(=O)[C@@H](N)CCCCN)[C@@H](C)O)C(=O)N[C@@H](Cc1ccc(O)cc1)C(=O)O [3102.0156] (H-KYRYGTFLY-OH)	1.1 nM
CC[C@H](C)[C@H](NC(=O)[C@H](CC(N)=O)NC(=O)CNC(=O)[C@H](CC(N)=O)NC(=O)[C@H](CCCCN)NC(=O)[C@@H](NC(=O)[C@H](C)N)[C@@H](C)O)C(=O)N[C@@H](Cc1ccccc1)C(=O)N[C@H](C(=O)O)C(C)C [3102.0093] (H-ATKNGNIFV-OH)	3.9 nM
CC(C)[C@H](NC(=O)[C@@H](N)Cc1c[nH]cn1)C(=O)N[C@@H](Cc1ccc(O)cc1)C(=O)N[C@@H](CC(=O)O)C(=O)N[C@@H](Cc1ccccc1)C(=O)N[C@@H](CCC(=O)O)C(=O)N1CCC[C@H]1C(=O)N[C@@H](Cc1ccc(O)cc1)C(=O)N[C@@H](Cc1ccc(O)cc1)C(=O)O [3102.0068] (H-HVYDFEPYY-OH)	27 nM
CC[C@H](C)[C@H](NC(=O)[C@H](CCSC)NC(=O)[C@H](CC(C)C)NC(=O)[C@@H]1CCCN1C(=O)[C@H](CCCNC(=N)N)NC(=O)[C@H](Cc1ccccc1)NC(=O)[C@@H](N)CCCCN)C(=O)N[C@@H](Cc1ccccc1)C(=O)N[C@@H](CCSC)C(=O)O [3102.0084] (H-KFRPLMIFM-OH)	1.8 nM
CC[C@H](C)[C@H](NC(=O)[C@@H](NC(=O)[C@@H](N)CCCNC(=N)N)[C@@H](C)O)C(=O)N[C@@H](CS)C(=O)N[C@H](C(=O)N[C@@H](CC(C)C)C(=O)N1CCC[C@H]1C(=O)N[C@@H](Cc1ccc(O)cc1)C(=O)N[C@@H](CC(C)C)C(=O)O)[C@@H](C)O [3102.0170] (H-RTICTLPYL-OH)	0.74 nM
CC[C@H](C)[C@H](NC(=O)[C@@H](N)CCCCN)C(=O)N[C@@H](CCCCN)C(=O)N[C@@H](CO)C(=O)N[C@@H](CO)C(=O)N[C@@H](CC(N)=O)C(=O)N[C@@H](CO)C(=O)N[C@@H](CO)C(=O)N[C@@H](CCCCN)C(=O)O [3102.0091] (H-KIKSSNSSK-OH)	15 nM
CC[C@H](C)[C@H](NC(=O)[C@H](CC(C)C)NC(=O)[C@H](CO)NC(=O)CNC(=O)[C@@H]1CCCN1C(=O)[C@H](CCCNC(=N)N)NC(=O)[C@H](Cc1ccccc1)NC(=O)[C@@H](N)CCCCN)C(=O)N[C@@H](Cc1ccc(O)cc1)C(=O)O [3102.0230] (H-KFRPGSLIY-OH)	0.3 nM
